Laboratory results taken from ChEMBL document CHEMBL1153650, “Imidazole and triazole substituted ether phospholipids: potent antitumor agents” (Bioorg Med Chem Lett, 1997).

Assays:
Format in all cases: functional, cell-based
[1] = system: FHC; test: In vitro inhibition of FHC normal human colon cell proliferation
[2] = system: MCF7; test: In vitro inhibition of estrogen receptor positive MCF-7 human breast cancer cell proliferation
[3] = system: MDA-MB-231; test: In vitro inhibition of estrogen receptor negative MDA-MB-231 human breast cancer cell proliferation
[4] = system: HT-29; test: In vitro inhibition of the HT-29 transformed human colon cell proliferation
[5] = system: HL-60; test: In vitro inhibition of HL-60 human promyelocytic leukemia cell proliferation

IC50 [2]	IC50 [3]	IC50 [4]	IC50 [5]	SMILES	IC50 [1]
3 µM	4.5 µM	2 µM	2 µM	CCCCCCCCCCCCCCCCCCOCC(CCP(=O)([O-])OCC[N+](C)(C)C)n1ccnc1 (configuration not stated)	5 µM
3 µM	6 µM	–	3 µM	CCCCCCCCCCCCCCCCCCOCC(CCP(=O)([O-])OCC[N+](C)(C)C)n1cncn1 (configuration not stated)	–
–	5 µM	2 µM	2 µM	CCCCCCCCCCCCCCCCCCOCC(COP(=O)([O-])OCC[N+](C)(C)C)OC (configuration not stated) [EDELFOSINE]	45 µM
